Results as given in paper PMC3236199, “Development of Derivatives of 3, 3′-Diindolylmethane as Potent Leishmania donovani Bi-Subunit Topoisomerase IB Poisons” (PLoS ONE, 2011).
Like-named read-outs stand apart in the source and are kept apart here.

How the values were obtained:
[1] = system: L. donovani AG83 promastigotes; test: Cell viability assay, wild type promastigotes; format: cell-based; settings: Leishmania donovani, 12 h, read-out: growth inhibited
Experimental: L. donovani strain AG83 and DIM resistant parasite DR50 promastigotes were grown at 22°C in M199 liquid media supplemented with 10% FBS as described. Axenic amastigotes were cultured in modified M199 medium (pH 5.3) supplemented with 10 mM sodium succinate, 40 mM HEPES and 25% FCS and maintained at 37°C with 5% CO2.The effect of drugs on the viability of Leishmania parasites was determined by direct microscopic counting using light microscope (40× objective) in a haemocytometer. The cells at the exponential phase were collected and transferred into 24-well plate (3.5×10^6 cells per well). The cells were then incubated for 12 h in the presence of various concentrations of DIM, DPDIM, DMDIM and DMODIM (1, 5, 10, 20 and 50 µM). For other experiments, 10^4 cells were taken and grown in presence of the respective derivatives for a period of 30 days. For each 5 day interval, a small amount of aliquots were taken out. After incubation the cells were centrifuged and cell pellet was washed with PBS (1×) twice and finally suspended in 1 ml PBS (1×). Fifty µl of aliquot was taken, mixed with 0.4% trypan blue solution and incubated for 3 min at 22°C. One drop of the mixture was transferred to haemocytometer and the clear (live) and blue (dead) cells were counted. The total number of viable cells in aliquot was calculated by multiplying the total number of viable cells by 2 (the dilution factor for trypan blue). To obtain the total number of cells in the aliquot, total number of viable and nonviable cells were added up and multiplied by 2. Percentages of viable cells were calculated using the formula: [drawing 1]
The effects of different derivatives of DIM on cell proliferation were tested by incubating wild type and DIM resistant L. donovani promastigotes (3.5×10^6 cells/ml) with the drugs. […] The number of live promastigotes was measured by differential staining of live and dead cells using light microscope under 40× objective (Fig. 2). […]
Figure 2 Effect of DIM-derivatives on Leishmania parasites. Growth of L. donovani AG83 promastigotes (A) and DIM resistant promastigotes (B) were monitored in presence of increasing concentrations (1, 5, 10, 20 and 50 µM) of DIM, DPDIM, DMDIM and DMODIM for 12 h. […] Change in IC50 values after a prolong exposure to DIM derivatives (C) has been assessed as described in Materials and Methods. After every 5 day a small aliquot was taken out and number of viable promastigotes was counted for each concentration. IC50 values have been determined from them using Graph Pad Prsim ver 5.0 software and a graphical plot was generated over time. Growth of the parasites treated with the compounds was expressed as percentage of the viable promastigotes compared with that of control. […]

[2] = system: F270L mutant topoisomerase I; test: Equilibrium (duplex oligonucleotide) cleavage assay, F270L mutant; format: biochemical, Leishmania donovani; settings: 20 µM, with respect to cleavable complex formed without drug with wild type enzyme
Experimental: Cells were lysed and proteins were purified through Ni^+2-NTA agarose column (Qiagen) followed by phosphocellulose column chromatography (P11 cellulose, Whatman) as described. Finally the purified proteins LdTOP1L, LdTOP1L^F270L and LdTOP1S were stored at −70°C. Purified LdTOP1L and LdTOP1L^F270L were mixed with purified LdTOP1S separately and at a molar ratio of 1∶1 at a total protein concentration of 0.5 mg/ml in reconstitution buffer (50 mM potassium phosphate, pH 7.5, 0.5 mM DTT, 1 mM EDTA, 0.1 mM PMSF, 10% glycerol). The mixtures were dialyzed over night at 4°C and the dialyzed fractions were used for the plasmid relaxation activity.
The 25-mer oligonucleotide 1 (5′-GAAAAAAGACTT↓AGAAAAATTTTTA-3′) was 5′-end labeled with [γ^32P] ATP and annealed with oligonucleotide 2 (5′-[…]-3′) to make a duplex oligonucleotide containing a topoisomerase I binding motif as described. Cleavage assay was carried out using 20-fold molar excess of enzymes over duplex 25-mer DNA (enzymes, 0.2 µM; DNA, 10 nM). The reactions were carried out in standard assay condition in the absence or presence of drugs at 37°C for 30 min. All the reactions were stopped by addition of SDS to a final concentration of 2% (w/v), digested with 5 µl of 1 mg/ml trypsin and analyzed by 12% denaturing polyacrylamide gel followed by autoradiography. The amount of strand cleavage in the presence of drugs was determined by densitometry of the film as described.
The effect of DIM and its derivatives on L. donovani topoisomerase I was examined by plasmid DNA cleavage assay as described. The topoisomerase reaction has three general mechanistic steps: (i) binding of enzyme to the substrate DNA, (ii) single strand breakage and subsequent strand rotation through the break leading to change in linking number, and (iii) strand religation. The second step of reaction is the introduction of a single-stranded nick in the phosphodiester bond of the DNA, through which an intact strand is allowed to pass. […]

Row | SMILES | inhibition at 20 µM ([1]; 20 µM, wild type AG83 promastigotes) [%] | extent of cleavage [2] [%] | inhibition at 20 µM [1] [%]
1 | c1ccc2c(Cc3c[nH]c4ccccc34)c[nH]c2c1 [DIM, 3, 3′-diindolyl methane, reference compound] | 88 |  | 
2 | Cc1[nH]c2ccccc2c1Cc1c(C)[nH]c2ccccc12 [DMDIM, 2,2′-dimethyl 3,3′-diindolyl methane] |  | ~53 | 83
3 | COc1ccc2[nH]cc(Cc3c[nH]c4ccc(OC)cc34)c2c1 [DMODIM, 5,5′-dimethoxy 3,3′-diindolyl methane] |  | ~50 | 70
4 | c1ccc(-c2[nH]c3ccccc3c2Cc2c(-c3ccccc3)[nH]c3ccccc23)cc1 [DPDIM, 2,2′-diphenyl 3,3′-diindolyl methane] |  | 56 | 96
